Patent US20240139185A1, “COMPOUNDS THAT PARTICIPATE IN COOPERATIVE BINDING AND USES THEREOF” (Revolution Medicines, Inc., priority 2018, published 2024)

Key:
pERK in H358 cells = experiment: pERK inhibition in H358 cells; type: cell-based, human; conditions: 4 hours treatment, read-out: Cellular pERK inhibition
Protocol: H358 cells (5500 cells) derived from a human lung cancer were plated in a 96 well plate in media (100 uL, RPMI with 10% FBS). After 24 hours, cells were treated for 4 hours with compound or DMSO. Cells were washed twice with room temperature TBS (200 uL) and fixed for 20 minutes with 4% paraformaldehyde diluted with TBS (150 uL). Cells were washed four times for five minutes with 0.1% TritonX/TBS (150 uL) to permeabilize the membrane. Cells were incubated with TBS blocking buffer (100 uL) at room temperature for 60 minutes. Primary antibody (Phospho-p44/42 MAPK (Erk1/2) (Thr202/Tyr204) (D13.14.4E) XP® Rabbit mAb #4370, Cell Signaling Technology; 1:200) was added, and the cells were incubated overnight at 4 C. The cells were washed four times for five minutes with 0.1% Tween 20/TBS (150 uL). Secondary antibody (IRDye® 800CW Goat-Anti-Rabbit IgG, Li-Cor Biosciences; 1:1000) and DRAQ5™ (Invitrogen; 1:2000) was added, and the cells were incubated for 1 hour at room temperature. The cells were washed four times for five minutes with 0.1% Tween 20/TBS (150 uL) and scanned using the LICOR (700 and 800 nm).

cyclophilin A (CYPA) = cyclophilin A (CYPA) (Homo sapiens, UniProt P62937); experiment: CYPA-compound binary complex formation by SPR; conditions: read-out: CYPA Binding Affinity
In short: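 CypA-Avi captured on a Biotin CAPture chip (4 μg/ml), reference flow cell subtracted. Compounds injected as 10-point 2-fold dilutions from 50 μM in HBS-P+ pH7.4 with 2% DMSO; 60 s association and 60 s dissociation, solvent-corrected. Affinity obtained by steady-state fitting.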

[1] = target: T1, BRAF-GTP-KRAS-G12C complex (Homo sapiens, UniProt P01116+P62937, G12C); experiment: KRAS-BRAF complex disruption through competition with CYPA-compound by TR-FRET; conditions: biochemical BRAF-KRAS G12C-GTP disruption assay EC50, with CYPA
T1 construct: 50 nM of His6-KRas G12C-GTP (1-169); 500 nM of tagless CypA (1-165)
In short: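 His6-KRAS G12C-GTP (1-169, 50 nM) with tagless CypA (1-165, 500 nM) was incubated with compound for 3 h at room temperature in pH 7.3 Hepes/NaCl/MgCl2 buffer containing GST-BRAF RBD. Anti-His Eu (10 nM) and anti-GST APC (50 nM) were then added for 1.5 h, and the 665/615 nm TR-FRET ratio was read. EC50 from 4-parameter fit; for specificity, wild-type KRAS replaced G12C, and CypA was omitted to test presenter dependence.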

Compound	IC50 (pERK in H358 cells) [nM]	Kd (cyclophilin A (CYPA)) [µM]	EC50 [1] [nM]
CC(C)[C@@H](C(=O)N[C@H]1Cc2cc(O)cc(c2)-c2ccc3c4cc(C#N)ccc4n(c3c2)CC(C)(C)COC(=O)[C@@H]2CCCN(N2)C1=O)N(C)C(=O)C1CN(C(=O)CCl)C1 [Compound 68]	1000 to 10000	≤ 5	≤ 500
CC(C)[C@@H](C(=O)N[C@H]1Cc2cc(O)cc(c2)-c2ccc3c(Cc4ccccn4)cn(c3c2)C[C@H](C)COC(=O)[C@@H]2CCCN(N2)C1=O)N(C)C(=O)C1CN(C(=O)CCl)C1 [Compound 69]	1000 to 10000	≤ 5	≤ 500
CON=C(C)c1cn2c3cc(ccc13)-c1cc(O)cc(c1)CC(NC(=O)C(C(C)C)N(C)C(=O)C1CN(C(=O)CCl)C1)C(=O)N1CCCC(N1)C(=O)OCC(C)C2 (stereo not drawn) [Compound 73]	1000 to 10000	≤ 5	≤ 500
CC(C)[C@@H](C(=O)N[C@H]1Cc2cc(O)cc(c2)-c2ccc3c(CCC#N)cn(c3c2)C[C@H](C)COC(=O)[C@@H]2CCCN(N2)C1=O)N(C)C(=O)C1CN(C(=O)CCl)C1 [Compound 76]	≤ 1000	≤ 5	≤ 500
CC1COC(=O)C2CCCN(N2)C(=O)C(NC(=O)C(C(C)C)N(C)C(=O)C2CN(C(=O)CCl)C2)Cc2cc(O)cc(c2)-c2ccc3c(C(C)C#N)cn(c3c2)C1 (stereo not drawn) [Compound 77]	≤ 1000	≤ 5	≤ 500
CC(C)[C@@H](C(=O)N[C@H]1Cc2cc(O)cc(c2)-c2ccc3c(C(C#N)C4CC4)cn(c3c2)C[C@H](C)COC(=O)[C@@H]2CCCN(N2)C1=O)N(C)C(=O)C1CN(C(=O)CCl)C1 (stereo partly drawn) [Compound 78]	1000 to 10000	5 to 15	≤ 500
CC(C)[C@@H](C(=O)N[C@H]1Cc2cc(O)cc(c2)-c2ccc3c(C4(C#N)CCC4)cn(c3c2)C[C@H](C)COC(=O)[C@@H]2CCCN(N2)C1=O)N(C)C(=O)C1CN(C(=O)CCl)C1 [Compound 81]	≤ 1000	5 to 15	≤ 500
CC(C)[C@@H](C(=O)N[C@H]1Cc2cc(O)cc(c2)-c2ccc3c(C(C)(C)C#N)c(C#N)n(c3c2)C[C@H](C)COC(=O)[C@@H]2CCCN(N2)C1=O)N(C)C(=O)C1CN(C(=O)CCl)C1 [Compound 85]	≤ 1000	≤ 5	≤ 500
CCc1c(-c2ccccc2OC)n2c3cc(ccc13)-c1cc(O)cc(c1)C[C@H](NC(=O)[C@H](C(C)C)N(C)C(=O)C1CN(C(=O)CCl)C1)C(=O)N1CCC[C@H](N1)C(=O)OC[C@@H](C)C2 [Compound 86]	≤ 1000	> 15	≤ 500
C=CC(=O)N1CCC(C(=O)N(C)C(C(=O)NC2Cc3cc(O)cc(c3)-c3ccc4c(C(C)(C)C#N)cn(c4c3)CC(C)(C)COC(=O)C3CCCN(N3)C2=O)C(C)C)C1 (stereo not drawn) [Compound 89]	1000 to 10000	5 to 15	500 to 5000
C=CC(=O)N1CCC(C(=O)N(C)C(C(=O)NC2Cc3cc(O)cc(c3)-c3ccc4cc(-c5ccccc5COC)n(c4c3)CC(C)(C)COC(=O)C3CCCN(N3)C2=O)C(C)C)C1 (stereo not drawn) [Compound 90]	≤ 1000	5 to 15	500 to 5000
C#CCOCc1cc2ccc3cc2n1C[C@H](C)COC(=O)[C@@H]1CCCN(N1)C(=O)[C@@H](NC(=O)[C@H](C(C)C)N(C)C(=O)C1CN(C(=O)CCl)C1)Cc1cc(O)cc-3c1 [Compound 91]	1000 to 10000	5 to 15	500 to 5000
C=CC(=O)N1CCN([C@H](C(=O)N[C@H]2Cc3cc(O)cc(c3)-c3ccc4c(C)cn(c4c3)CC(C)(C)COC(=O)[C@@H]3CCCN(N3)C2=O)C(C)C)C1=O [Compound 97]	> 10000	> 15	≤ 500
CCc1cn2c3cc(ccc13)-c1cc(O)cc(c1)CC(NC(=O)C(C(C)C)N(C)C(=O)C1CN(C(=O)CCl)C1)C(=O)N1CCCC(N1)C(=O)OCC(C)(C)C2 (stereo not drawn) [Compound 99]	≤ 1000	> 15	≤ 500
CC(C)[C@@H](C(=O)N[C@H]1Cc2cc(O)cc(c2)-c2ccc3c(S(C)(=O)=O)cn(c3c2)CCCOC(=O)[C@@H]2CCCN(N2)C1=O)N(C)C(=O)C1CN(C(=O)CCl)C1 [Compound 102]	> 10000	5 to 15	≤ 500
